Results taken from patent publication US11752156B2, “Compositions and methods for treating hyperproliferative skin disorders” (Athenex HK Innovative Limited, priority 2018, dated 2023).

Key:
[1] = tested on: cell proliferation/growth; assay: combined treatment with KX01 and tazarotene, inhibition of cell proliferation/growth; assay type: cell-based
Text: (§1) Examples of suitable retinoids include retinol, retinal, retinoic acid isotretinoin, alitreninoin, etretinate, acitretin, adapalene, bexarotene, and/or tazarotene. FIGS. 7 and 8 show the effects of tazarotene on growth of cells in culture, including CCD-1106 KERTr keratinocytes (FIG. 7) and A431 cells (epidermoid cells obtained from a human squamous cell carcinoma, FIG. 8).

[2] = tested on: A431 cells (epidermoid cells obtained from a human squamous cell carcinoma); assay: inhibition of cell growth by tazarotene, A431; assay type: cell-based
Text: FIG. 8: Inhibition of A431 cell growth by tazarotenee, as determined by staining.
as §1

[3] = tested on: CCD-1106 KERTr keratinocytes; assay: inhibition of cell growth by tazarotene, keratinocytes; assay type: cell-based, human
Text: FIG. 7: Inhibition of CCD1106 KERTr keratinocyte growth by tazarotene, as determined by staining.
as §1

Work on `CCOC(=O)c1ccc(C#Cc2ccc3c(c2)C(C)(C)CCS3)nc1` [Tazarotene, tazarotene] yielded an H [1] of 1.0, an Imax [1] of 1.1 and an IC50 ([1]; column head says nM) of 13300 nM. For the same compound, the Maximum inhibition ([2]; A431, model estimate) was 1.09, the H ([2]; A431, steepness of slope) was 1.66 and the IC50 ([2]; Homo sapiens, A-431, A431, model estimate) was 36.3 µM. It also gave an IC50 ([3]; Homo sapiens, CCD-1106, model estimate) of 12.4 µM, a Maximum inhibition ([3]; model estimate) of 0.903 and an H ([3]; steepness of slope) of 2.11.
